# Measurements as given in patent publication EP0195316A1, “Quinolonecarboxylic acid derivatives” (KYORIN PHARMACEUTICAL CO., LTD., priority 1985, dated 1986).
# Like-named read-outs stand apart in the source and are kept apart here.
# Experiments:
# Format in all cases: cell-based
# [1] = test system: Fusobacterium necrophorum S-45; assay: MIC, in vitro antibacterial activity (standard strains); conditions: S45; Fusobacterium necrophorum S-45, 10^6 cells/ml, Gram -
# [2] = test system: Pseudomonas aeruginosa V-1; assay: as above; conditions: V1; Pseudomonas aeruginosa V-1, 10^6 cells/ml, Gram -
# [3] = test system: E. coli ATCC 10536; assay: as above; conditions: Escherichia coli, ATCC10536
# [4] = test system: Streptococcus pyogenes (S-8); assay: as above; conditions: Streptococcus pyogenes (S-8), 10^6 cells/ml, Gram +; read-out: MIC
# [5] = test system: B. catarrhalis; assay: MIC, in vitro antibacterial activity (clinical isolates); conditions: Moraxella catarrhalis; clinical isolates B. catarrhalis, No. of strains 21; read-out: MIC
# [6] = test system: Pst. microns UPI 5464-1; assay: MIC, in vitro antibacterial activity (standard strains); conditions: Pst. microns UPI 5464-1, 10^6 cells/ml, Gram +
# [7] = test system: Shigella sonnei IID 969; assay: as above; conditions: IID969; Shigella sonnei IID 969, 10^6 cells/ml, Gram -
# Protocol: (§1) Minimal inhibitory concentrations (MICs) were determined in accordance with the method recommended by Japan Society of Chemotherapy.
# [8] = test system: Acinetobacter anitratus IID 876; assay: as above; conditions: Acinetobacter calcoaceticus, IID876; Acinetobacter anitratus IID 876, 10^6 cells/ml, Gram -
# [9] = test system: Peptococcus magnus KY 017; assay: as above; conditions: Finegoldia magna, KY017; Peptococcus magnus KY 017, 10^6 cells/ml, Gram +
# [10] = test system: B. fragilis 8503; assay: as above; conditions: Bacteroides fragilis; B. fragilis 8503, 10^6 cells/ml, Gram -
# [11] = test system: Campylobacter jejuni; assay: MIC, in vitro antibacterial activity (clinical isolates); conditions: No. of strains 20
# [12] = test system: Enterobacter cloacae IID 977; assay: MIC, in vitro antibacterial activity (standard strains); conditions: IID977; Enterobacter cloacae IID 977, 10^6 cells/ml, Gram -
# [13] = test system: M. morganii; assay: MIC, in vitro antibacterial activity (clinical isolates); conditions: Morganella morganii, No. of strains 8
# [14] = test system: Bacteroides sp.; assay: as above; conditions: No. of strains 17
# [15] = test system: N. gonorrhoeae; assay: as above; conditions: Neisseria gonorrhoeae, No. of strains 16
# [16] = test system: P. maltophilia; assay: as above; conditions: Stenotrophomonas maltophilia, No. of strains 9
# [17] = test system: S. epidermidis; assay: as above; conditions: Staphylococcus epidermidis, No. of strains 10
# [18] = test system: S. pyogenes IID 692; assay: MIC, in vitro antibacterial activity (standard strains); conditions: Streptococcus pyogenes, IID692; S. pyogenes IID 692, 10^6 cells/ml, Gram +
# [19] = test system: S. marcescens; assay: MIC, in vitro antibacterial activity (clinical isolates); conditions: Serratia marcescens, No. of strains 20
# [20] = test system: S. pneumoniae IID 552; assay: MIC, in vitro antibacterial activity (standard strains); conditions: Streptococcus pneumoniae, IID552; S. pneumoniae IID 552, 10^6 cells/ml, Gram +; read-out: MIC
# [21] = test system: P. aeruginosa IFO 12689; assay: as above; conditions: Pseudomonas aeruginosa, IFO12689; P. aeruginosa IFO 12689, 10^6 cells/ml, Gram -
# [22] = test system: Escherichia coli NIHJ JC-2; assay: as above; conditions: NIHJJC2; Escherichia coli NIHJ JC-2, 10^6 cells/ml, Gram -; read-out: MIC
# [23] = test system: E. coli; assay: MIC, in vitro antibacterial activity (clinical isolates); conditions: Escherichia coli, No. of strains 25
# Protocol: as §1
# [24] = test system: S. aureus; assay: as above; conditions: Staphylococcus aureus, No. of strains 21
# Protocol: as §1
# [25] = test system: P. mirabilis; assay: as above; conditions: Proteus mirabilis, No. of strains 10
# [26] = test system: P. aeruginosa; assay: as above; conditions: Pseudomonas aeruginosa; clinical isolates P. aeruginosa, No. of strains 27; read-out: MIC
# [27] = test system: E. faecalis; assay: as above; conditions: Enterococcus faecalis, No. of strains 5
# [28] = test system: Alcaligenes faecalis 0104002; assay: MIC, in vitro antibacterial activity (standard strains); conditions: Alcaligenes faecalis 0104002, 10^6 cells/ml, Gram -; read-out: MIC
# [29] = test system: P. aeruginosa IFO 12689
# [30] = test system: Alcaligenes sp.; assay: MIC, in vitro antibacterial activity (clinical isolates); conditions: No. of strains 9
# [31] = test system: P. aeruginosa IFO 1210
# [32] = test system: Yersinia enterocolitica IID 981; assay: MIC, in vitro antibacterial activity (standard strains); conditions: IID981; Yersinia enterocolitica IID 981, 10^6 cells/ml, Gram -
# [33] = test system: Klebsiella pneumoniae KY(GN)6445; assay: as above
# [34] = test system: B. fragilis 0558; assay: as above; conditions: Bacteroides fragilis; B. fragilis 0558, 10^6 cells/ml, Gram -
# [35] = test system: S. pyogenes; assay: MIC, in vitro antibacterial activity (clinical isolates); conditions: Streptococcus pyogenes; clinical isolates S. pyogenes, No. of strains 6; read-out: MIC
# [36] = test system: E. cloacae IID 977
# [37] = P. aeruginosa IFO 12689, Conc. of Drugs 2MIC
# [38] = P. aeruginosa IFO 12689, Conc. of Drugs 4MIC
# [39] = P. aeruginosa IFO 1210, Conc. of Drugs 2MIC
# [40] = P. aeruginosa IFO 1210, Conc. of Drugs 4MIC
# [41] = E. cloacae IID 977, Conc. of Drugs 2MIC
# [42] = E. cloacae IID 977, Conc. of Drugs 4MIC
SMILES,MIC [1] [µg/mL],MIC [2] [µg/mL],MIC [3] [µg/mL],MIC [4] [µg/mL],MIC [5] [µg/mL],MIC [6] [µg/mL],MIC [7] [µg/mL],MIC [8] [µg/mL],MIC [9] [µg/mL],MIC [10] [µg/mL],MIC [11] [µg/mL],MIC [12] [µg/mL],MIC [13] [µg/mL],MIC [14] [µg/mL],MIC [15] [µg/mL],MIC [16] [µg/mL],MIC [17] [µg/mL],MIC [18] [µg/mL],MIC [19] [µg/mL],MIC [20] [µg/mL],also measured
"CC1CN(c2c(F)cc3c(=O)c(C(=O)O)cn(C4CC4)c3c2Cl)CCN1 (stereo not drawn) [Ref.2, 8-Chloro-1-cyclopropyl-6-fluoro-1,4-dihydro-7-(3-methyl-1-piperazinyl)-4-oxo-3-quinolinecarboxylic acid]",0.39,0.2,0.0125,0.39,0.05,0.2,0.0125,0.05,0.2,0.78,0.2,0.05,0.1,0.39,0.006,1.56,0.1,0.78,0.05,0.39,"MIC [21]: 1.56 µg/mL; MIC [22]: ≤ 0.006 µg/mL; MIC [23]: 0.025 µg/mL; MIC [24]: 0.1 µg/mL; MIC [25]: 0.05 µg/mL; MIC [26]: 1.56 µg/mL; MIC [27]: 0.78 µg/mL; MIC [28]: 0.2 µg/mL; Frequency of spontaneous resistant mutants [29, 37]: 5.5 × 10^-7; Frequency of spontaneous resistant mutants [29, 38]: <6.3 × 10^-10; MIC [30]: 6.25 µg/mL; Frequency of spontaneous resistant mutants [31, 39]: 7.7 × 10^-8; Frequency of spontaneous resistant mutants [31, 40]: <6.7 × 10^-10; MIC [32]: 0.05 µg/mL; MIC ([33]; Klebsiella pneumoniae KY(GN)6445, 10^6 cells/ml, Gram -, read-out: MIC): 0.025 µg/mL; MIC [34]: 0.39 µg/mL; MIC [35]: 0.39 µg/mL; Frequency of spontaneous resistant mutants [36, 41]: 3.1 × 10^-7; Frequency of spontaneous resistant mutants [36, 42]: <6.7 × 10^-10"
"NC1CCN(c2c(F)cc3c(=O)c(C(=O)O)cn(C4CC4)c3c2Cl)C1 (stereo not drawn) [Example 25, 7-(3-Amino-l-pyrrolidinyl)-8-chloro-l-cyclopropyl-6-fluoro-1,4-dihydro-4-oxo-3-quinolinecarboxylic acid]",0.2,0.2,0.0125,0.05,0.05,0.05,0.0125,0.05,0.05,0.39,0.05,0.05,0.025,0.1,0.013,0.78,0.05,0.1,0.05,0.1,"MIC [21]: 0.2 µg/mL; MIC [22]: ≤ 0.006 µg/mL; MIC [23]: 0.013 µg/mL; MIC [24]: 0.05 µg/mL; MIC [25]: 0.05 µg/mL; MIC [26]: 0.2 µg/mL; MIC [27]: 0.2 µg/mL; MIC [28]: 0.05 µg/mL; Frequency of spontaneous resistant mutants [29, 37]: 4.5 × 10^-8; Frequency of spontaneous resistant mutants [29, 38]: <6.3 × 10^-10; MIC [30]: 0.78 µg/mL; Frequency of spontaneous resistant mutants [31, 39]: <6.7 × 10^-10; Frequency of spontaneous resistant mutants [31, 40]: <6.7 × 10^-10; MIC [32]: 0.025 µg/mL; MIC ([33]; Klebsiella pneumoniae): 0.0125 µg/mL; MIC [34]: 0.1 µg/mL; MIC [35]: 0.1 µg/mL; Frequency of spontaneous resistant mutants [36, 41]: 6.7 × 10^-10; Frequency of spontaneous resistant mutants [36, 42]: <6.7 × 10^-10"
